In patent publication US4634707A, “5-Pyrimidinecarboxamides and treatment of leukemia and tumors therewith” (Uniroyal Chemical Company, priority 1984, dated 1987):

What was measured:
[1] = system: L1210 leukemia; experiment: NCI 3LE31, i.p.-implanted L1210 lymphoid leukemia; assay type: in vivo, DBA/2 mice; conditions: for number of mice cured (surviving after thirty day test period): six mice; for activity in i.p.-implanted lymphoid leukemia test (in words): 3LE31, reproducible T/C of 150% or higher is considered significant activity; for response vs control in vivo at 6.25 mg/kg: 6.25 mg/kg i.p. daily for nine days; for response vs control in vivo at 12.5 mg/kg: 12.5 mg/kg i.p. daily for nine days
Experimental: The spectrum of antitumor activity of the compound of Example 1 was determined employing a number of standard National Cancer Institute (NCI) protocols. The antitumor activity was determined in vivo against several different tumors, employing various treatment schedules and routes of administration.
Samples of the test compounds of Examples 1-10 and a number of structurally-related control compounds were tested in accordance with National Cancer Institute test protocol 3LE31 (NCI Protocol 1.100, Cancer Chemotherapy Reports Part 3, Vol. 3, No. 2, September 1972) to determine the effects of the several compounds on i.p.-implanted L1210 leukemia (J. Nat'l. Cancer Inst. 13(5):1328, 1953). Each test involved implantation of the leukemia cells in six DBA/2 mice, one sex per experiment, the male mice weighing a minimum of 18 grams and the female mice weighing a minimum of 17 grams, and all of the test animals being within a three gram weight range. The test compound was administered by i.p. injections, in 0.1 ml. doses of diluted ascitic fluid (10^5 cells per dose), commencing one day after the tumor implant and continuing daily for nine days.
The test animals were weighed and survivors recorded on a regular basis during a thirty day test period. The ratio of survival time for the treated and control animals (T/C) was determined as a percentage.
The tests were carried out at varying dosage levels and with varying numbers of repetitions, depending upon the results obtained with each test compoud. […] A reproducible T/C of 150% or higher is considered significant activity.
The number of mice "cured", viz., those surviving from each animal test group after the thirty day test period, is indicated in parenthesis following the T/C percentage data in Table III below: […]

[2] = system: Ehrlich Ascites carcinoma; conditions: Ehrlich Ascites carcinoma in mice; Chem. & Pharm. Bull. (Tokyo) 8, 1021-1028 (1960); cited from earlier work
[3] = 25 mg/kg i.p. daily for nine days
[4] = 50 mg/kg i.p. daily for nine days
[5] = 400 mg/kg i.p. daily for nine days
[6] = 200 mg/kg i.p. daily for nine days
[7] = Mus musculus, L1210, ip, 25 mg/kg i.p. daily for nine days, read-out: T/C % (survival time treated/control)
[8] = Mus musculus, L1210, ip, 50 mg/kg i.p. daily for nine days, read-out: T/C % (survival time treated/control)
[9] = Mus musculus, L1210, ip, 100 mg/kg i.p. daily for nine days, read-out: T/C % (survival time treated/control)
[10] = Mus musculus, L1210, ip, 200 mg/kg i.p. daily for nine days, read-out: T/C % (survival time treated/control)
[11] = Mus musculus, L1210, ip, 400 mg/kg i.p. daily for nine days, read-out: T/C % (survival time treated/control)
[12] = Mus musculus, L1210, ip, read-out: T/C % (survival time treated/control)
[13] = 100 mg/kg i.p. daily for nine days

SMILES	response vs control in vivo at 25 mg/kg [1, 7] [%]	response vs control in vivo at 50 mg/kg [1, 8] [%]	response vs control in vivo at 100 mg/kg [1, 9] [%]	response vs control in vivo at 200 mg/kg [1, 10] [%]	T/C % (survival time treated/control) [1, 6]	further results
O=C(Nc1ccccc1)c1c(O)n(-c2ccccc2)c(=S)n(-c2ccccc2)c1=O [Control T]						T/C % (survival time treated/control) [1, 3]: 102%; T/C % (survival time treated/control) [1, 4]: 109%; T/C % (survival time treated/control) [1, 5]: 109%
O=C(Nc1ccccc1Cl)c1c(O)[nH]c(=S)[nH]c1=O [Example 2, N-(2-chlorophenyl)-1,2,3,4-tetrahydro-6-hydroxy-4-oxo-2-thioxo-5-pyrimidinecarboxamide]	106	118	127			number of mice cured (surviving after thirty day test period) [1, 6]: 1; T/C % (survival time treated/control) [1, 5]: Toxic
O=c1[nH]c(O)c(C(=S)Nc2ccccc2)c(=O)[nH]1 [Control X]	105	98	97	104		
Cn1c(O)c(C(=O)Nc2ccccc2)c(=O)[nH]c1=O [1-methyl derivative]						anti-tumor activity (in words) [2]: neither of its 1-methyl or 1-phenyl-substituted derivatives, exhibited anti-tumor activity
O=C(Nc1ccc(F)cc1)c1c(O)[nH]c(=S)[nH]c1=O [Example 5, N-(4-fluorophenyl)-1,2,3,4-tetrahydro-6-hydroxy-4-oxo-2-thioxo-5-pyrimidinecarboxamide]	111	112	133		Toxic	activity in i.p.-implanted lymphoid leukemia test (in words) [1]: With the exception of the compound of Example 5, the materials of the other examples similarly exhibited significant activity
O=C(Nc1ccccc1F)c1c(O)[nH]c(=S)[nH]c1=O [Example 8, N-(2-fluorophenyl)-1,2,3,4-tetrahydro-6-hydroxy-4-oxo-2-thioxo-5-pyrimidinecarboxamide]	148	105	128	118		
O=C(Nc1ccccc1)c1c(O)n(-c2ccccc2)c(=O)[nH]c1=O [1-phenyl derivative]						anti-tumor activity (in words) [2]: neither of its 1-methyl or 1-phenyl-substituted derivatives, exhibited anti-tumor activity
Cc1ccccc1NC(=O)c1c(O)[nH]c(=S)[nH]c1=O [Example 3, 1,2,3,4-tetrahydro-6-hydroxy-N-(2-methylphenyl)-4-oxo-2-thioxo-5-pyrimidine-carboxamide]	108	112			Toxic	
COc1ccc(NC(=O)c2c(O)[nH]c(=S)[nH]c2=O)cc1 [Example 6, 1,2,3,4-tetrahydro-6-hydroxy-N-(4-methoxyphenyl)-4-oxo-2-thioxo-5-pyrimidinecarboxamide]	112	108	104	127		response vs control in vivo at 400 mg/kg [1, 11]: 127%
Cn1c(=S)[nH]c(O)c(C(=O)Nc2ccccc2)c1=O [Control G]	94	98	87		Toxic	
Cn1c(O)c(C(=O)Nc2ccccc2)c(=O)n(C)c1=S [Control K]	107	109	121		Toxic	
CC(C)c1cccc(C(C)C)c1NC(=O)c1c(O)n(-c2ccccc2)c(=S)n(-c2ccccc2)c1=O [Control U]	101	100	104	112		
CCOc1ccc(NC(=O)c2c(O)[nH]c(=S)[nH]c2=O)cc1 [Example 7, N-(4-ethoxyphenyl)-1,2,3,4-tetrahydro-6-hydroxy-4-oxo-2-thioxo-5-pyrimidinecarboxamide]	115		178		Toxic	response vs control in vivo at 6.25 mg/kg [1, 12]: 102%; response vs control in vivo at 12.5 mg/kg [1, 12]: 97%
O=C1NC(=O)C(C(=O)Nc2ccccc2)C(=O)N1 [5-phenylcarbamoylbarbituric acid]						anti-tumor activity (in words) [2]: exhibited anti-tumor activity
O=C(Nc1ccccc1)c1c(O)[nH]c(=O)[nH]c1=O [Control C]						activity in i.p.-implanted lymphoid leukemia test (in words) [1]: exhibited significant activity; response vs control in vivo at 400 mg/kg [1, 11]: 233%
O=C(Nc1ccc(Cl)cc1)c1c(O)[nH]c(=S)n(-c2ccccc2)c1=O [Control R]					Toxic	T/C % (survival time treated/control) [1, 3]: 106%; T/C % (survival time treated/control) [1, 4]: 121%; T/C % (survival time treated/control) [1, 13]: 88%
O=C(Nc1ccc(Cl)cc1)c1c(O)[nH]c(=S)n(-c2ccccc2)c1=O [Control Q]	100				Toxic	T/C % (survival time treated/control) [1, 4]: 92%; T/C % (survival time treated/control) [1, 13]: 112%
O=C(Nc1ccccc1)c1c(O)[nH]c(=O)[nH]c1=O [Control B]	118					number of mice cured (surviving after thirty day test period) [1, 6]: 2; activity in i.p.-implanted lymphoid leukemia test (in words) [1]: exhibited significant activity
COc1ccc(NC(=O)c2c(O)[nH]c(=O)[nH]c2=O)cc1 [Control F]	109	105	105	117		
Cn1c(=S)[nH]c(O)c(C(=O)Nc2ccccc2)c1=O [Control H]					Toxic	T/C % (survival time treated/control) [1, 3]: Toxic; T/C % (survival time treated/control) [1, 4]: Toxic; T/C % (survival time treated/control) [1, 13]: Toxic; response vs control in vivo at 1.56 mg/kg ([1]; Mus musculus, L1210, ip, 1.56 mg/kg i.p. daily for nine days, read-out: T/C % (survival time treated/control)): 97%; response vs control in vivo at 3.12 mg/kg ([1]; Mus musculus, L1210, ip, 3.12 mg/kg i.p. daily for nine days, read-out: T/C % (survival time treated/control)): 98%; response vs control in vivo at 6.25 mg/kg [1, 12]: 98%; response vs control in vivo at 12.5 mg/kg [1, 12]: 98%
COC(=O)c1ccccc1NC(=O)c1c(O)n(-c2ccccc2)c(=S)n(-c2ccccc2)c1=O [Control V]	102	106			Toxic	T/C % (survival time treated/control) [1, 13]: Toxic
O=C(Nc1ccc(F)cc1F)c1c(O)[nH]c(=S)[nH]c1=O [Example 9, N-(2,4-difluorophenyl)-1,2,3,4-tetrahydro-6-hydroxy-4-oxo-1-thioxo-5-pyrimidinecarboxamide]	113	113	114	133		
O=C(Nc1cccc(F)c1)c1c(O)[nH]c(=S)[nH]c1=O [Example 4, N-(3-fluorophenyl)-1,2,3,4-tetrahydro-6-hydroxy-4-oxo-2-thioxo-5-pyrmidinecarboxamide]	114	114	128	155		
